Measurements as given in patent US5324728A, “Naphthoic acid derivative” (Fujirebio Inc., priority 1990, dated 1994).

Experiments:
mast cells = experiment: Membrane-stabilizing action (mast cell degranulation); type: cell-based; details: Rattus norvegicus, 10^-4 M
Experimental: Membrane-stabilizing action
This test was conducted according to the method of Schwartz, J. et al. [Int. Arch. Allergy 30, 67 (1966)].
That is, 10 ml each of Hnak's balanced salt solution containing 10 units/ml of heparin was administered to rats intraperitoneally. After gentle massage of the abdomen for 2 minutes, peritoneal exudate cells (PEC) were obtained and washed 3 times with PBS containing 0.1% of bovine serum albumin (BSA). Mast cells in the suspension of PEC were stained with 0.2% of Neutral Red, and PEC were adjusted to a concentration of 4×10^5 mast cells/ml using PBS containing 0.1% of BSA. The cell suspension (50 μl) was incubated with 50 μl of a test compound solution at 37° C. for 5 minutes, then challenged with anti-egg albumin rat serum (50 μl, 1:40) and egg albumin (50 μl, 10 mg/ml) and further incubation was performed for 10 minutes. The reaction mixture was ice-cooled to terminate the reaction. Thereafter the number of mast cells undergoing degranulation was assessed under microscope observation to determine the menbrane-stabilizing action of the test compound.

5-lipoxygenase = molecular target: T1, 5-lipoxygenase (Rattus norvegicus, UniProt P12527); experiment: 5-Lipoxygenase activity-inhibiting action (5-HETE biosynthesis, rat basophil leukemia-1 cell supernatant); type: biochemical
T1 construct: The resulting supernatant liquid was used as an enzymatic solution; endogenous in cells; host or cells: rat basophil leukemia-1 (RBL-1) cells, supernatant after sonication
T1 sequence (P12527 1-673): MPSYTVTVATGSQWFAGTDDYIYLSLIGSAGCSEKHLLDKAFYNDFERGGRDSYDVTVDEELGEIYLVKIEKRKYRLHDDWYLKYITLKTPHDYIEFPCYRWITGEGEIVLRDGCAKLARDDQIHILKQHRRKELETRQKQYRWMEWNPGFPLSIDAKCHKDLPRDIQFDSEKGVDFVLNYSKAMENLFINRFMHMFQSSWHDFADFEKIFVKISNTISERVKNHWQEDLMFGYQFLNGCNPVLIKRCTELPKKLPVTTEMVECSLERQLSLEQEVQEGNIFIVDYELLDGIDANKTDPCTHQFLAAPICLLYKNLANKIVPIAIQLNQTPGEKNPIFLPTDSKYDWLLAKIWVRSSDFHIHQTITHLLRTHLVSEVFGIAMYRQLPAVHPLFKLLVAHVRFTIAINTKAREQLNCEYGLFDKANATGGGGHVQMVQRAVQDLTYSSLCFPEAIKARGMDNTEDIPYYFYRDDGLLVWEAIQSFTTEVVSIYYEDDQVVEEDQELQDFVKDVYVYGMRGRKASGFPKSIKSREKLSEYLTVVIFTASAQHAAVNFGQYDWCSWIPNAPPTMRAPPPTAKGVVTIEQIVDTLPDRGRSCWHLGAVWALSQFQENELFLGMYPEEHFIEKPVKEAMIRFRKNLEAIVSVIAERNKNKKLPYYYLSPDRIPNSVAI
Experimental: 5-Lipoxygenase activity-inhibiting action
Rat basophil leukemia-1 cells were suspended in a 50 mM phosphate buffer solution (PBS) of pH 7.0 containing 1 mM of EDTA, 0.1% of gelatin and 14 μM of indometacin so that the resulting suspension contained 5×10^7 cels cells/ml ml. The suspension was subjected to an ultrasonic treatment and then to centrifugation (10,000G, 20 minutes). The resulting supernatant liquid was used as an enzymatic solution. 10 μl of a test compound solution was added to 460 μl of the enzymatic solution and a reaction was conducted at 37° C. for 5 minutes. Thereto were added 7.4 KBq of ^14 C-arachidonic acid and a 100 mM aqueous calcium chloride solution, and a reaction was conducted at 37° C. for 10 minutes. The reaction mixture was ice-cooled and then adjusted to pH 3 with 1N hydrochloric acid to terminate the reaction. Thereafter, extraction with 5 ml of chloroform was conducted. The extract was subjected to evaporation to dryness in the presence of nitrogen gas, and the residue was dissolved in a 2:1 mixture of chloroform and methanol. The solution was developed by thin-layer chromatography using Kieselgel 60 F254, according to the method of Jakschik, B. A. et al. [Biachen. Biophys. Res. Commun. 95, 103 (1980)]. The radioactivity of 5-hydroxyeicosatetraenoic acid (5-HETE) was measured by a liquid scintillation counter (LSC-900 manufactured by Aroka) to determine the ratio of 5-HETE biosynthesis inhibition of test compound-added group to control group, after which there was determined a concentration of test compound at which the activity of 5-lipoxygenase was inhibited by 50%, i.e. an IC50. The test compound was used in a diluted form by dissolving it in dimethyl sulfoxide. The results are shown in Tables 1, 2 and 3 which appear later.

tracheal chain = experiment: Histamine antagonism (isolated guinea pig tracheal chain contraction); type: cell-based; details: Cavia porcellus, 5 min; 10^-5 M test compound; 3×10^-5 M histamine hydrochloride
Experimental: Guinea pigs were sacrificed and the tracheae were isolated. Each trachea was cut open at the center of the tracheal cartilage, and was cut in the vertical direction to separate into individual segments. Three of these segments were combined to form a tracheal chain. The tracheal chain was suspended in a Magnus tube filled with a Tyrode's solution (NaCl: 137 mX, KCl: 2.7 mM, CaCl2 : […], MgCl2 : 1.1 mM, NaHPO4 : 0.4 mM, NaHCO3 : 12.0 mM, glucose: 5.6 mM) kept at 37° C., while applying a load of 0.5 g. A mixed gas consisting of 95% of O2 and 5% of CO2 was constantly passed through the tube, and the contraction of the smooth muscle was recorded on a polygraph (U-228 manufactured by NIPPON DENKI KAGAKU) via an isotonic transducer (TD-112S manufactured by Nihon Koden). Each test compound was incubated for 5 minutes before the addition of 3×10^-5 M of histamine hydrochloride (a product of Wako Pure Chemical Industries, Ltd.).

TXA2 synthetase = molecular target: T2, TXA2 synthetase (Homo sapiens, UniProt P24557); experiment: TX synthesis-inhibiting action (thromboxane synthetase kit, human platelet microsome); type: biochemical; details: 3 × 10^-6 M
T2 construct: human platelet microsome fraction; purchased Funakoshi: Eldan Tech; host or cells: human platelet microsome fraction (thromboxane synthetase kit)
T2 sequence (P24557 1-533): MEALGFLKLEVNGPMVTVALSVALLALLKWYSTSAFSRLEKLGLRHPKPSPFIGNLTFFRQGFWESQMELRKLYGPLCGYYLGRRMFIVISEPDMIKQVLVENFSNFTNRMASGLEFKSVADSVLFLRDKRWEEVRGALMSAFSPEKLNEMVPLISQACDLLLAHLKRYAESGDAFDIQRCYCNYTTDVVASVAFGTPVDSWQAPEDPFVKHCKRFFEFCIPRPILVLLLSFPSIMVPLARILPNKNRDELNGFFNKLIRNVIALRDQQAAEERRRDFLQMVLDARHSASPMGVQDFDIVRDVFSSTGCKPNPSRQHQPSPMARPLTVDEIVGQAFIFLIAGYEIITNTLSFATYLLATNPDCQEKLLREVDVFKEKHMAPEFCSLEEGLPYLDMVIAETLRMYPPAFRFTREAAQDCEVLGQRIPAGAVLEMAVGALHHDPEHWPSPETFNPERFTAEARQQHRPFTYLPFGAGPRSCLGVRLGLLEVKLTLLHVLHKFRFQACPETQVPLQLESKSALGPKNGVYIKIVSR
Experimental: TX synthesis-inhibiting action
TXA2 synthetase activity was measured by the use of a thromboxane synthetase kit (Funakoshi: Eldan Tech). That is, 0.97 mg of a human platelet microsome fraction was suspended in 1 m of a 50 mM tris-0.1M sodium chloride buffer solution of pH 7.5, and the resulting suspension was ice-cooled. […] of the suspension was placed in a sample tube and a test compound was added thereto. The resulting mixture was preincubated at 25° C. exactly for 3 minutes. Thereto was added 2μ of an ice-cooled acetone solution containing 0.05 mg/m of PGH2, and the resulting mixture was incubated at 25° C. exactly for 3 minutes. 10μ of a 0.25 mM FeCl2 solution was added to terminate the reaction. The resulting mixture was allowed to stand at room temperature for 15 minutes and then subjected to centrifugation at 1,000 G at 4° C. for 10 minutes. The TXB2 content contained in the supernatant was measured by RIA (thromboxanes B2 [3H] RIA Kit: NEN Research Products). The test compound was dissolved in DMSO or distilled water before use. The test was performed in triplicate or quadruplicate assays.

| SMILES | inhibition at 3 µM (TXA2 synthetase) | IC50 (5-lipoxygenase; Table 3) | IC50 (5-lipoxygenase; Table 2) | inhibition at 100 µM (mast cells) | IC50 (5-lipoxygenase; Table 1) | inhibition at 10 µM (tracheal chain) |
| --- | --- | --- | --- | --- | --- | --- |
| CC(=O)Oc1cccc2cc(C(=O)NCCN3CCN(CCSCc4cccs4)CC3)c(O)cc12 [Example 4, N-[2-[4-(thienylmethylthio)ethyl-1-piperazinyl]ethyl]-5-acetoxy-3-hydroxy-2-naphthamide] |  |  |  | 53.7% | 320 nM |  |
| CC(=O)Oc1cccc2cc(C(=O)NCCN3CCC(OC(c4ccccc4)c4ccccc4)CC3)c(O)cc12 [Example 5, N-[2-[4-(benzhydryloxy)piperidino]ethyl]-5-acetoxy-3-hydroxy-2-naphthamide] |  |  |  | 96.5% | 410 nM | 65.4% |
| CC(=O)Oc1cccc2cc(C(=O)NCCN3CCN(CCSC(c4ccncc4)c4ccc(Cl)cc4)CC3)c(O)cc12 (stereo not drawn) [Example 15] | 73.2% | 300 nM |  |  |  |  |
| O=C(NCCN1CCN(CCSC(c2ccc(Cl)cc2)c2ccc(Cl)cc2)CC1)c1cc2cccc(O)c2cc1O [Example 21] |  |  |  | 100% | 250 nM |  |
| O=C(NCCN1CCC(OC(c2ccccc2)c2ccccc2)CC1)c1cc2cccc(O)c2cc1O [Example 34, N-[2-[4-(benzhydryloxy)piperidino]ethyl]-3,5-dihydroxy-2-naphthamide] |  |  |  | 41% | 150 nM | 64.7% |
| O=C(NCCN1CCC(OC(c2ccccc2)c2ccccc2)CC1)c1cc2cc(O)ccc2cc1O [Example 35, N-[2-[4-(benzhydryloxy)piperidino]ethyl]-3,7-dihydroxy-2-naphthamide] |  |  | 270 nM |  |  | 67.9% |
| O=C(NCCN1CCC(OC(c2ccccc2)c2ccccc2)CC1)c1cc2cccc(OCc3cccnc3)c2cc1O [Example 42, N-[2-[4-(benzhydryloxy)piperidino]ethyl]-3-hydroxy-5-(3-pyridylmethoxyl)-2-naphthamide] |  |  |  | 60.1% | 5100 nM |  |

Continued, in another order:

| inhibition at 3 µM (TXA2 synthetase) | IC50 (5-lipoxygenase; Table 3) | IC50 (5-lipoxygenase; Table 2) | SMILES | inhibition at 100 µM (mast cells) | IC50 (5-lipoxygenase; Table 1) | inhibition at 10 µM (tracheal chain) |
| --- | --- | --- | --- | --- | --- | --- |
| 75.6% |  | 110 nM | O=C(NCCN1CCC(OC(c2ccccc2)c2ccccc2)CC1)c1cc2cccc(OCc3ccncc3)c2cc1O [Example 43, N-[2-[4-(benzhydryloxy)piperidino]ethyl]-3-hydroxy-5-(4-pyridylmethoxyl)-2-naphthamide] | 80.7% |  | 48.2% |
| 61.8% |  |  | O=C(NCCCCCSCc1cccs1)c1cc2cccc(O)c2cc1O [Example 44, N-[5-(2-thienylmethylthio)pentyl]-3,5-dihydroxy-2-naphthamide] |  |  |  |
